Each structure is given as a SMILES string.

Chain of USP1/UAF1 (O94782 whole entry): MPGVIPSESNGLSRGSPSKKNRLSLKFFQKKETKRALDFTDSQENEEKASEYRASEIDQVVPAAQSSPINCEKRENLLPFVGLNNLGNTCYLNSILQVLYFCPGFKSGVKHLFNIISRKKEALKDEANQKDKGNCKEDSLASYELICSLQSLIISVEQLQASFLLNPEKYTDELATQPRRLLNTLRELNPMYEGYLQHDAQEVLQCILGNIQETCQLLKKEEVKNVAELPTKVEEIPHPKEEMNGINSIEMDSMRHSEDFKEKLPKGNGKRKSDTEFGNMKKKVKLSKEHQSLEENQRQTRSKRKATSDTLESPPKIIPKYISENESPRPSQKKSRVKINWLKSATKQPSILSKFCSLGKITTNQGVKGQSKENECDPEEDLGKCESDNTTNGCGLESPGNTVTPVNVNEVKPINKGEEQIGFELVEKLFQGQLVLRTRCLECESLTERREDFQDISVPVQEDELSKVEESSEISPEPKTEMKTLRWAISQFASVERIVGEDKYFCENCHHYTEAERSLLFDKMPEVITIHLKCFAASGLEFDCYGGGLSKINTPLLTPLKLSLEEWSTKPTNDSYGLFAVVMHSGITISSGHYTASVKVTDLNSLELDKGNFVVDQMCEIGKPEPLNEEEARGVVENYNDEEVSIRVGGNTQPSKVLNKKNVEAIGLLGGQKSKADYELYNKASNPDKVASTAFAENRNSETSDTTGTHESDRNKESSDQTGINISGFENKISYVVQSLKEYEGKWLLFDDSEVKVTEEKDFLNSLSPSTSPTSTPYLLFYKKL
Chain of USP1/UAF1 (Q8TAF3 whole entry partner): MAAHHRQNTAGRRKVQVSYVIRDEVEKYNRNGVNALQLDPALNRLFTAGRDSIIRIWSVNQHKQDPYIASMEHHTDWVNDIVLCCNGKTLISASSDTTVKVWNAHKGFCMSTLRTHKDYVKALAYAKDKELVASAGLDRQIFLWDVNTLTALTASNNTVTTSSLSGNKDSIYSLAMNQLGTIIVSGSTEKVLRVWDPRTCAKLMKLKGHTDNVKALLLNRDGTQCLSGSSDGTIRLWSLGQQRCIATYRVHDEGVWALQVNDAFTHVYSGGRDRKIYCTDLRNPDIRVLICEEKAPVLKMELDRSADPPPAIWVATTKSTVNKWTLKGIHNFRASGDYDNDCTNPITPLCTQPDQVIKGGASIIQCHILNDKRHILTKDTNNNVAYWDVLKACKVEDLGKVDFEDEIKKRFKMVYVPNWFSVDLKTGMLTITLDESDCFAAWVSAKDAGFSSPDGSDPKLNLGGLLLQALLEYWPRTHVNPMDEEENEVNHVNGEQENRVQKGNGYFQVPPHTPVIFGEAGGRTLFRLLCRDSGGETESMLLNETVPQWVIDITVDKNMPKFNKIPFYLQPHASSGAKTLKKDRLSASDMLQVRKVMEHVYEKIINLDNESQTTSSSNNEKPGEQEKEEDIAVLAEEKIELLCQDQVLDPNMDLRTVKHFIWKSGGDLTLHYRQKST

The test system of the first series is MD-MBA-436. The series is described as follows: Cell viability assay (CTG assay). It counts as cell-based, human. The following applies: Homo sapiens, 7th day. Here is the method: Test 5: Cell Viability Assay (CTG Assay):
Growth inhibition assays was carried out using […] supplemented media. Cells were seeded at a desired concentration of 1000-6,000 cells/well in a well plate with desired number of wells. Test compounds at a desired concentration range were added after 24 hours. Growth was assessed using the Cell Titer-Glo (CTG, Cell Signaling) for measuring reduction at 7th day after the addition of test compound chemiluminescence values were read by a plate reader. Data was be analysed and percent inhibition and/or IC50 for each test compound is calculated accordingly.
`COc1ncnc(C2CC2)c1-c1nc(NCc2ccc(-c3nc(C(F)(F)F)cn3C(C)C)cc2)c2cccn2n1` [Example 22, 2-(4-cyclopropyl-6-methoxypyrimidin-5-yl)-N-(4-(1-isopropyl-4-(trifluoromethyl)-1H-imidazol-2-yl)benzyl)pyrrolo[2,1-f][1,2,4]triazin-4-amine]: the IC50 lay within 0.05 to 0.1 µM. For the compound `CC(C)c1ccccc1-c1nc(NCc2ccc(-c3nc(C(F)(F)F)cn3C)cc2)c2cccn2n1` [Example 5, 2-(2-isopropylphenyl)-N-(4-(1-methyl-4-(trifluoromethyl)-1H-imidazol-2-yl)benzyl)pyrrolo[2,1-f][1,2,4]triazin-4-amine], the IC50 was not below 1 µM.

Staying with this series, now noted: Homo sapiens, 7th day, @10 μM.
For `COc1ncnc(C2CC2)c1-c1nc(NCc2ccc(-c3nc(C(F)(F)F)cn3C)cc2)c2ncn(C3CCCCO3)c2n1` (stereo not drawn) [Example 19, 2-(4-cyclopropyl-6-methoxypyrimidin-5-yl)-N-(4-(1-methyl-4-(trifluoromethyl)-1H-imidazol-2-yl)benzyl)-9-(tetrahydro-2H-pyran-2-yl)-9H-purin-6-amine], the inhibition at 10 µM lay within 75 to 100%.

The target in a further series is USP1/UAF1 (Homo sapiens, UniProt O94782). The series is described as follows: USP1/UAF 1 assay (ubiquitin-rhodamine110 fluorometric deubiquitinase assay). The class given is biochemical. To be noted: 1 nM USP1/UAF1, 150 nM Ub-Rho; read-out: Biochemical assay IC50. Here is the method:
Test-1: USP1/UAF 1 Assay:
Deubiquitinase activity of USP1/UAF1 was monitored in a fluorometric assay using ubiquitin-rhodamine110 as substrate. Briefly, enzymatic reactions were conducted in an assay buffer composed of 50 mM HEPES, pH 7.8, 0.5 mM EDTA, 100 mM NaCl, 1 mM TCEP, 0.1 mg/mL BSA, and 0.01% Tween-20 that contained 1 nM USP1/UAF1. Compounds were tested at desired concentrations. The plates were incubated for 15 min to attain equilibrium, and then the enzymatic reaction was initiated by dispensing 150 nM Ub-Rho solution. Fluorescence measurement was performed in a high throughput CCD imager, where kinetic measurements of rhodamine fluorescence were acquired using a 480 nm excitation/540 nm emission filter set. The change in fluorescence intensity over a 5-minute reaction period (typically associated with less than 10% substrate conversion) was normalized against no-inhibitor and no-enzyme controls and the resulting percent inhibition data were fitted to a sigmoidal dose response using a four-parameter Hill equation. Data was be analysed and percent inhibition and/or IC50 for each test compound is calculated accordingly.
For `COc1ncnc(C2CC2)c1-c1nc(NCc2ccc(-c3nc(C(F)(F)F)cn3C(C)C)cc2)c2cccn2n1` [Example 22, 2-(4-cyclopropyl-6-methoxypyrimidin-5-yl)-N-(4-(1-isopropyl-4-(trifluoromethyl)-1H-imidazol-2-yl)benzyl)pyrrolo[2,1-f][1,2,4]triazin-4-amine], the IC50 was less than 0.05 µM. On the same count and under the same terms, the figure for `CC(C)c1ccccc1-c1nc(NCc2ccc(-c3nc(C(F)(F)F)cn3C)cc2)c2cccn2n1` [Example 5, 2-(2-isopropylphenyl)-N-(4-(1-methyl-4-(trifluoromethyl)-1H-imidazol-2-yl)benzyl)pyrrolo[2,1-f][1,2,4]triazin-4-amine] is less than 0.05 µM.

As to `CC(C)c1ccccc1-c1cc2nccn2c(NCc2ccc(-c3nc(C(F)(F)F)cn3C)cc2)n1` [Example 7, 7-(2-isopropylphenyl)-N-(4-(1-methyl-4-(trifluoromethyl)-1H-imidazol-2-yl)benzyl)imidazo[1,2-c]pyrimidin-5-amine], the IC50 is 0.1 to 1 µM.

The same series, now with this note: @1 μM.
Consider `CC(C)c1ccccc1-c1nc(NCc2ccc(-c3nc(C(F)(F)F)cn3C)cc2)c2ncn(C3CCCCO3)c2n1` (stereo not drawn) [Example 18, 2-(2-isopropylphenyl)-N-(4-(1-methyl-4-(trifluoromethyl)-1H-imidazol-2-yl)benzyl)-9-(tetrahydro-2H-pyran-2-yl)-9H-purin-6-amine], for which the “Biochemical assay % inhibition @1 μM” value is “B+++”.

Staying with this series, now noted: read-out: Biochemical assay % inhibition @1 μM.
For the compound `COc1ncnc(C2CC2)c1-c1nc(NCc2ccc(-c3nc(C(F)(F)F)cn3C)cc2)c2ncn(C3CCCCO3)c2n1` (stereo not drawn) [Example 19, 2-(4-cyclopropyl-6-methoxypyrimidin-5-yl)-N-(4-(1-methyl-4-(trifluoromethyl)-1H-imidazol-2-yl)benzyl)-9-(tetrahydro-2H-pyran-2-yl)-9H-purin-6-amine], the inhibition at 1 µM was 50 to 75%.

`CC(C)c1ccccc1-c1nc2c(c(OCc3ccc(-c4nc(C(F)(F)F)cn4C(C)C)cc3)n1)CCC2` [Example 13, 4-((4-(1-isopropyl-4-(trifluoromethyl)-1H-imidazol-2-yl)benzyl)oxy)-2-(2-isopropylphenyl)-6,7-dihydro-5H-cyclopenta[d]pyrimidine]: the inhibition at 1 µM was in the range of 25 to 50%.

As for `Cn1cc(C(F)(F)F)nc1-c1ccc(CNc2nc(-c3ccccc3C(F)(F)F)nc3c2CCC3)cc1` [Example 70, N-(4-(1-methyl-4-(trifluoromethyl)-1H-imidazol-2-yl)benzyl)-2-(2-(trifluoromethyl)phenyl)-6,7-dihydro-5H-cyclopenta[d]pyrimidin-4-amine], the inhibition at 1 µM was more than 75%. Turning to `COc1ccc(-c2nc3c(c(NCc4ccc(-c5nc(C(F)(F)F)cn5C)cc4)n2)CCC3)cc1OC` [Example 69, 2-(3,4-dimethoxyphenyl)-N-(4-(1-methyl-4-(trifluoromethyl)-1H-imidazol-2-yl)benzyl)-6,7-dihydro-5H-cyclopenta[d]pyrimidin-4-amine], the inhibition at 1 µM lay within 50 to 75%. For `Cn1cc(C(F)(F)F)nc1-c1ccc(CNc2nc(-c3ccc(OC(F)(F)F)cc3)nc3nc[nH]c23)cc1` [Example 47, N-(4-(1-methyl-4-(trifluoromethyl)-1H-imidazol-2-yl)benzyl)-2-(4-(trifluoromethoxy)phenyl)-7H-purin-6-amine], the inhibition at 1 µM fell in the range of 50 to 75%. On to `Cn1cc(C(F)(F)F)nc1-c1ccc(CNc2nc(-c3ccc(F)cc3F)nc3nc[nH]c23)cc1` [Example 40, 2-(2,4-difluorophenyl)-N-(4-(1-methyl-4-(trifluoromethyl)-1H-imidazol-2-yl)benzyl)-7H-purin-6-amine], for which the inhibition at 1 µM was 50 to 75%.

For the compound `COc1ccc(-c2nc(NCc3ccc(-c4nc(C(F)(F)F)cn4C)cc3)c3[nH]cnc3n2)c(OC)c1` [Example 53, 2-(2,4-dimethoxyphenyl)-N-(4-(1-methyl-4-(trifluoromethyl)-1H-imidazol-2-yl)benzyl)-7H-purin-6-amine], the inhibition at 1 µM fell in the range of 50 to 75%. The same measure, in the same setting: the figure for `Cn1cc(C(F)(F)F)nc1-c1ccc(CNc2nc(-c3ccc(F)c(C#N)c3)nc3c2CCC3)cc1` [Example 60, 2-fluoro-5-(4-((4-(1-methyl-4-(trifluoromethyl)-1H-imidazol-2-yl)benzyl)amino)-6,7-dihydro-5H-cyclopenta[d]pyrimidin-2-yl)benzonitrile] is 50 to 75%; for `COc1ccc(-c2nc3c(c(NCc4ccc(-c5nc(C(F)(F)F)cn5C)cc4)n2)CCC3)c(OC)c1` [Example 68, 2-(2,4-dimethoxyphenyl)-N-(4-(1-methyl-4-(trifluoromethyl)-1H-imidazol-2-yl)benzyl)-6,7-dihydro-5H-cyclopenta[d]pyrimidin-4-amine] it is 50 to 75%. Same read-out and setting: under `Cn1cc(C(F)(F)F)nc1-c1ccc(CNc2nc(-c3cc(Cl)ccc3F)nc3c2CCC3)cc1` [Example 61, 2-(5-chloro-2-fluorophenyl)-N-(4-(1-methyl-4-(trifluoromethyl)-1H-imidazol-2-yl)benzyl)-6,7-dihydro-5H-cyclopenta[d]pyrimidin-4-amine] stands 50 to 75%. As to `Cn1cc(C(F)(F)F)nc1-c1ccc(CNc2nc(-c3ccc(C(F)(F)F)cc3)nc3nc[nH]c23)cc1` [Example 57, N-(4-(1-methyl-4-(trifluoromethyl)-1H-imidazol-2-yl)benzyl)-2-(4-(trifluoromethyl)phenyl)-7H-purin-6-amine], the inhibition at 1 µM lay within 50 to 75%.

As for `COc1ccc(-c2nc(NCc3ccc(-c4nc(C(F)(F)F)cn4C)cc3)c3[nH]cnc3n2)c(OC)n1` [Example 43, 2-(2,6-dimethoxypyridin-3-yl)-N-(4-(1-methyl-4-(trifluoromethyl)-1H-imidazol-2-yl)benzyl)-7H-purin-6-amine], the inhibition at 1 µM was 50 to 75%.

With `Cn1cc(C(F)(F)F)nc1-c1ccc(CNc2nc(-c3cccc(F)c3C(F)(F)F)nc3nc[nH]c23)cc1` [Example 54, 2-(3-fluoro-2-(trifluoromethyl)phenyl)-N-(4-(1-methyl-4-(trifluoromethyl)-1H-imidazol-2-yl)benzyl)-7H-purin-6-amine], the inhibition at 1 µM lay within 50 to 75%. On the same count and under the same terms, the figure for `Cn1cc(C(F)(F)F)nc1-c1ccc(CNc2nc(-c3cccc(OC(F)(F)F)c3)nc3nc[nH]c23)cc1` [Example 46, N-(4-(1-methyl-4-(trifluoromethyl)-1H-imidazol-2-yl)benzyl)-2-(3-(trifluoromethoxy)phenyl)-7H-purin-6-amine] is 50 to 75%; for `Cn1cc(C(F)(F)F)nc1-c1ccc(CNc2nc(-c3ccc(C(F)(F)F)cc3)nc3c2CCC3)cc1` [Example 71, N-(4-(1-methyl-4-(trifluoromethyl)-1H-imidazol-2-yl)benzyl)-2-(4-(trifluoromethyl)phenyl)-6,7-dihydro-5H-cyclopenta[d]pyrimidin-4-amine] it is 50 to 75%; for `Cn1cc(C(F)(F)F)nc1-c1ccc(CNc2nc(Cl)nc3c2ncn3C2CCCCO2)cc1` (stereo not drawn) [Example 17, 2-chloro-N-(4-(1-methyl-4-(trifluoromethyl)-1H-imidazol-2-yl)benzyl)-9-(tetrahydro-2H-pyran-2-yl)-9H-purin-6-amine] it is more than 75%.

Turning to `Cn1cc(C(F)(F)F)nc1-c1ccc(CNc2nc(-c3cc(Cl)cc(Cl)c3)nc3nc[nH]c23)cc1` [Example 39, 2-(3,5-dichlorophenyl)-N-(4-(1-methyl-4-(trifluoromethyl)-1H-imidazol-2-yl)benzyl)-7H-purin-6-amine], the inhibition at 1 µM was 50 to 75%.

The same series, now with this note: read-out: Biochemical assay % inhibition @10 μM.
For the compound `COc1ncnc(C2CC2)c1-c1nc(NCc2ccc(-c3nc(C(F)(F)F)cn3C)cc2)c2ncn(C)c2n1` [Example 37, 2-(4-cyclopropyl-6-methoxypyrimidin-5-yl)-9-methyl-N-(4-(1-methyl-4-(trifluoromethyl)-1H-imidazol-2-yl)benzyl)-9H-purin-6-amine], the inhibition at 10 µM was more than 75%.

Tested on in another series: not listed separately
The series is described as follows: Metabolic stability, mouse liver microsomes. To be noted: pH 7.4, 1 μM test item, 1 mM NADPH, 60 minutes. The class given is in vitro ADME. Here is the method:
Test-8: Metabolic Stability
Metabolic stability studies were conducted using mouse, rat, and human liver microsomes. The protocol for the studies with mouse and human liver microsomes (Gibco-Thermo) is provided below.
In brief, 0.25 mg protein was preincubated in phosphate buffer (pH˜7.4) for 5 min at 37° C. and then added with 1 μM test item followed by addition of 1 mM NADPH (cof actor) and incubated further over a period 60 minutes in duplicate. The reaction mixture was terminated with acetonitrile containing an internal standard and centrifuged further to analyse the test item remaining in the supernatant by LC-MS/MS at different intervals. The percent parent compound remaining was calculated in comparison with similar samples terminated at 0 minutes.
`COc1cccc(F)c1-c1nc(OCc2ccc(-c3nc(C(F)(F)F)cn3C)cc2)c2ncn(C3CCCCO3)c2n1` (stereo not drawn) [Example 27, 2-(2-fluoro-6-methoxyphenyl)-6-((4-(1-methyl-4-(trifluoromethyl)-1H-imidazol-2-yl)benzyl)oxy)-9-(tetrahydro-2H-pyran-2-yl)-9H-purine] returned a half-life at 1 μM of 2.03 h. On to `CC(C)c1ccccc1-c1nc2c(c(OCc3ccc(-c4nc(C(F)(F)F)cn4C(C)C)cc3)n1)CCC2` [Example 13, 4-((4-(1-isopropyl-4-(trifluoromethyl)-1H-imidazol-2-yl)benzyl)oxy)-2-(2-isopropylphenyl)-6,7-dihydro-5H-cyclopenta[d]pyrimidine], for which the half-life at 1 μM stood at 0.163 h.
